In ChEMBL document CHEMBL1201862, “PubChem BioAssay data set” (2004):
The source made the active and inactive calls.

Key:
[1] = Luminescence-based cell-based high throughput dose response assay to identify activators of the DAF-12 from the parasite S. stercoralis (ssDAF-12).; assay type: functional
[2] = biological target: T1, Oxysterols receptor LXR-beta (Homo sapiens, UniProt P55055); assay: LXR agonists, Gal4 luciferase reporter, dose response, counter-screen for ssDAF-12 agonist project, cell-based, luminescence, HEK293, S. stercoralis campaign (AID 720737); assay type: functional; settings: read-out: IC50 (the source's name)
T1 sequence (P55055 whole entry): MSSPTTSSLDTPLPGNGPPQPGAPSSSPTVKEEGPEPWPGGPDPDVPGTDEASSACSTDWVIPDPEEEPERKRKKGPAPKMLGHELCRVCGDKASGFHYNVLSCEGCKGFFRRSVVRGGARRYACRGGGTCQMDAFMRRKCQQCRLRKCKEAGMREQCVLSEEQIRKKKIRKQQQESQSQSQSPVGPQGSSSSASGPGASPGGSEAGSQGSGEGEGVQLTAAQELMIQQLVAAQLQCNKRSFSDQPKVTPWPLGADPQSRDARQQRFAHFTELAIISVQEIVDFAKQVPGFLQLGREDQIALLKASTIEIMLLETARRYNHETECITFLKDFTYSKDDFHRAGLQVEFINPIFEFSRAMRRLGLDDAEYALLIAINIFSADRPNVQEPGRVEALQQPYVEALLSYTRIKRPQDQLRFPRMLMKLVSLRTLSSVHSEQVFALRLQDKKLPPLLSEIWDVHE

[3] = A cytotoxicity screen of small molecule inhibitors of the PhoP region in Salmonella typhi identified in the primary screen. [Related pubchem assays: 1850, 1864, 1985 ]; assay type: functional
[4] = biological target: T2, Estrogen receptor beta (Homo sapiens, UniProt Q92731);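 further: recombinant ER-beta bound to coactivator SRC1 peptide in presence of estradiol agonist; inhibitors block coactivator peptide binding and lower the FRET signal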
[5] = biological target: T2, Estrogen receptor beta; assay: ERβ–SRC-3 coactivator interaction inhibitors, confirmation, orthogonal assay, biochemical, ELISA, streptavidin-HRP readout (AID 1060)
[6] = inhibitors of intracellular T. cruzi replication, confirmation, NIH3T3 host cells, beta-gal luminescence (AID 2044); assay type: functional, cell-based;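 further: intracellular parasites grown in NIH/3T3 mouse fibroblasts as host cells; luminescent beta-galactosidase reporter signal from transgenic T. cruzi replicating inside host cells; inhibitors lower the luminescence signal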
[7] = cytotoxicity toward NIH3T3 fibroblasts, dose response, counter-screen, cell-based, ATP luminescence, mouse fibroblasts (AID 2010); assay type: functional;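 further: cells exposed to compound for about 90 hours before reading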
[8] = biological target: Nonstructural protein 1 (Influenza A virus, UniProt Q194T2); assay type: functional, Influenza A virus (A/California/07/2009(H1N1))
[9] = cells
[10] = biological target: NAD-dependent protein deacylase sirtuin-5, mitochondrial (Homo sapiens, UniProt Q9NXA8); assay: SIRT5 desuccinylase inhibitors, dose response, biochemical, fluorescence imaging, cherry-pick, set 5 (AID 720591);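 further: desuccinylation of succinyl peptide AMC substrate read as fluorescence after trypsin release; potency of inhibitors that lower fluorescence and may act on trypsin instead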
[11] = P. falciparum late gametocyte killing, dose response, luminescence (AID 1117278); assay type: functional, cell-based;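 further: gametocytes exposed to compound for 24 hours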
[12] = Jurkat T cell cytotoxicity, dose response, cytotoxicity control for P. falciparum gametocyte viability project, luminescence (AID 1117277); assay type: functional, cell-based;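 further: potency reflects loss of cellular ATP meaning fewer viable cells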
[13] = biological target: T3, Calpain-2 catalytic subunit (Sus scrofa, UniProt P43367); assay: pig calpain II inhibitor potency, dose response, biochemical, fluorogenic peptide substrate (AID 1420); assay type: functional
T3 sequence (P43367 whole entry): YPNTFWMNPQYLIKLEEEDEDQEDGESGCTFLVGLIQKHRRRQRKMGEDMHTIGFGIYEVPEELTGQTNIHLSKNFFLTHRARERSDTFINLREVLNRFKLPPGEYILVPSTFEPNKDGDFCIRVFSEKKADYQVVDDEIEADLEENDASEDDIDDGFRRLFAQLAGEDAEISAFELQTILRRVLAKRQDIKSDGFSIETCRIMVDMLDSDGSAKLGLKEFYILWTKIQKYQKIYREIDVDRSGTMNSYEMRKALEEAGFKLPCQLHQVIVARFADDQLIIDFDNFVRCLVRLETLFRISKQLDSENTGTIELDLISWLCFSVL

[14] = inhibitors of PGC1a acetylation in cells, dose response, cell-based, cherry-picked samples (AID 720514); assay type: functional;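 further: potency may reflect raised or lowered acetylation signal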
[15] = biological target: T4, Polyadenylate-binding protein 1 (Homo sapiens, UniProt P11940); assay: PABP1 MLLE–PAM2 interaction inhibitors, dose response, miRNA deadenylation inhibitor project, biochemical, fluorescence polarization, Cy5-PAM2 peptide, secondary (AID 602260); assay type: functional; settings: read-out: IC50_Mean
[16] = biological target: T4, Polyadenylate-binding protein 1; assay: PABP1 MLLE–PAM2 binding inhibitor potency, dose response, biochemical, fluorescence polarization, FITC-PAM2 peptide (AID 602259); assay type: functional; settings: read-out: IC50_Mean
[17] = biological target: T1, Oxysterols receptor LXR-beta; assay type: functional, cell-based
[18] = cells; remark: listed apart in the source
[19] = biological target: T5, Protein skinhead-1 (Caenorhabditis elegans, UniProt P34707); assay type: functional
T5 sequence (P34707 whole entry): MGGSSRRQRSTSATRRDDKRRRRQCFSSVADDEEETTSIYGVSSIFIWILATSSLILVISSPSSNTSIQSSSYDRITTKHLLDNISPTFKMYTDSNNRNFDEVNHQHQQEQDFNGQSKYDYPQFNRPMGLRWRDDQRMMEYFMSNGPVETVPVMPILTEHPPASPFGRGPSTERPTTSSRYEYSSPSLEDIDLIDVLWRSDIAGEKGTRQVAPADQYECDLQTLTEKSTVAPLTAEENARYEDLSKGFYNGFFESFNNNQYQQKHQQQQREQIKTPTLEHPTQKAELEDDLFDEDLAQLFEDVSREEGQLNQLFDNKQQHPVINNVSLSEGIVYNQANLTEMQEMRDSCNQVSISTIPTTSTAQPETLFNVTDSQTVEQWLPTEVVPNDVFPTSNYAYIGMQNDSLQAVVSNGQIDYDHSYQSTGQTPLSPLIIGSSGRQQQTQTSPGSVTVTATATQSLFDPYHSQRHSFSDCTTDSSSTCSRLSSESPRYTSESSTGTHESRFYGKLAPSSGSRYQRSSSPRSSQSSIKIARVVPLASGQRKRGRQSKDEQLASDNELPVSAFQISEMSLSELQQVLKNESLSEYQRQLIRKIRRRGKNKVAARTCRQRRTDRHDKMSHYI

[20] = biological target: T6, Microphthalmia-associated transcription factor (Homo sapiens, UniProt O75030); assay: TRPM1 promoter luciferase signal decrease, dose response, MITF inhibitor project, cell-based, SK-MEL-5, cherry-picked, set 3 (AID 493073); assay type: functional
T6 sequence (O75030 whole entry): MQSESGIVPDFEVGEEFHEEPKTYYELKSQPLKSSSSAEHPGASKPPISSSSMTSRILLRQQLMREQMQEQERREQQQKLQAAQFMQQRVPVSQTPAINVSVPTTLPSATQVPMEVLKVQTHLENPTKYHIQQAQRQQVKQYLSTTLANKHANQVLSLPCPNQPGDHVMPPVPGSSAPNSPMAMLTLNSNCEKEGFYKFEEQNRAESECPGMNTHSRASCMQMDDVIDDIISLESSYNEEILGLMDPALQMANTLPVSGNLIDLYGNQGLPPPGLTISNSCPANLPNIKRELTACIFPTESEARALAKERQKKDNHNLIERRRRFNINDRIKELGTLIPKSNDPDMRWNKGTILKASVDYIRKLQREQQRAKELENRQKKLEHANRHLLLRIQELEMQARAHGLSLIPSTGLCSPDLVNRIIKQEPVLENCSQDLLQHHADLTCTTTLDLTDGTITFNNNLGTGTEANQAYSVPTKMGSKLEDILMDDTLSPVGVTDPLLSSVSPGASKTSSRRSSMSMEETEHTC

T2 sequence (Q92731 whole entry): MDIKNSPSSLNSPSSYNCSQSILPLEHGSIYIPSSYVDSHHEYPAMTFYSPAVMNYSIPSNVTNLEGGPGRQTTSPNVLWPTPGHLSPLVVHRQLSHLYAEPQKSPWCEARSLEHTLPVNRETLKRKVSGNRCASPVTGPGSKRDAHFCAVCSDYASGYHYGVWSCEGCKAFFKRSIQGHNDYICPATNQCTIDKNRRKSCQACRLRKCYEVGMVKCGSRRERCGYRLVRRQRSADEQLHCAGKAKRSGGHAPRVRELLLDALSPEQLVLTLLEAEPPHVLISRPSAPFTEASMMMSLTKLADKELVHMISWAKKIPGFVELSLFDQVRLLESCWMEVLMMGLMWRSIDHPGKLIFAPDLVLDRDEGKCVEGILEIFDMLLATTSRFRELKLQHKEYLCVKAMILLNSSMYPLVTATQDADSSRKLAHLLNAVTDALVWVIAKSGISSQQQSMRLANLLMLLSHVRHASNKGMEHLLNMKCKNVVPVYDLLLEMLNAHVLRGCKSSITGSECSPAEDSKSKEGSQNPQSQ
Chain of NAD-dependent protein deacylase sirtuin-5, mitochondrial (Q9NXA8 whole entry): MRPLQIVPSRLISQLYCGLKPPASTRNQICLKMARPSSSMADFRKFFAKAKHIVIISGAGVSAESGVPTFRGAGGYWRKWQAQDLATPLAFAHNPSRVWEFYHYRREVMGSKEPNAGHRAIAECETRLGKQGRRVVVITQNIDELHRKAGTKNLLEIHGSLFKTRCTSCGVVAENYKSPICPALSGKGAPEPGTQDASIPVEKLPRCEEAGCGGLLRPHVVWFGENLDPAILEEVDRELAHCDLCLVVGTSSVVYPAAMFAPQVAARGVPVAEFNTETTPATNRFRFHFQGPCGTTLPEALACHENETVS
T4 sequence (P11940 whole entry): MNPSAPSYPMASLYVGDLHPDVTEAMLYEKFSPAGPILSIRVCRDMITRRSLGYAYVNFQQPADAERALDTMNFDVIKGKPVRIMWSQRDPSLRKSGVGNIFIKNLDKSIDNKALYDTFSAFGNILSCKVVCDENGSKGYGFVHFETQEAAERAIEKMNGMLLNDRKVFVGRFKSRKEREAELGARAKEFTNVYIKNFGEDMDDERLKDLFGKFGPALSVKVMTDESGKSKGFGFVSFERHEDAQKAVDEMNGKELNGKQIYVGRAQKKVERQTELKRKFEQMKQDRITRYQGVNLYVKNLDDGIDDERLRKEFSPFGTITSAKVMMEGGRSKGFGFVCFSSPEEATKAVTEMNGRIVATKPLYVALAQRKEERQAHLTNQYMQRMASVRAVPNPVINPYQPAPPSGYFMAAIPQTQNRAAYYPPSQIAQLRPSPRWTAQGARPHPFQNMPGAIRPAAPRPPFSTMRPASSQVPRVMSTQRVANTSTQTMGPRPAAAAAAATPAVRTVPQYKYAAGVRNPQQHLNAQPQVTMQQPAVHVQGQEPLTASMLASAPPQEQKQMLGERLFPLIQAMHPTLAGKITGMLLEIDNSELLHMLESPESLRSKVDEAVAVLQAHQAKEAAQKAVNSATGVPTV
Chain of Nonstructural protein 1 (Q194T2 whole entry): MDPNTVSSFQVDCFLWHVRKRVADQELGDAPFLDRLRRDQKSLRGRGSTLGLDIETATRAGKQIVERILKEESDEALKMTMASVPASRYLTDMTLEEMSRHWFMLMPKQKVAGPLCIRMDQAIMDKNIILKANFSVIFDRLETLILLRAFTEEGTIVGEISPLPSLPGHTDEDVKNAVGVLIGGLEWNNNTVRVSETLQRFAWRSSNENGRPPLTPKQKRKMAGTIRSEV

Which IC50 [1] does the source give for `Cc1ccc(N/C=C/C(=O)c2ccccc2)cc1Br` here?
Its IC50 is > 67.6 µM (inactive).

What about the EC50 [2] of the same compound?
Its EC50 is > 67.6 µM (inactive).

For `CC(C)NC1=NN=C(c2ccc(F)cc2)CS1`, which EC50 [3] is on record?
Its EC50 is > 50 µM (active).

For `Cc1noc(C)c1S(=O)(=O)N(CC(=O)O)c1ccc2c(c1)OCO2`, which IC50 [4] is on record?
The IC50 was 9.71 µM (active).

What about the IC50 [5] of the same compound?
The IC50 was 0.084 µM (not active).

What does the source list for `O=C(Cc1cccs1)Nc1ccc(S(=O)(=O)Nc2ncccn2)cc1`?
IC50 [4]: < 1.56 µM (active); IC50 [5]: 0.0699 µM (not active)

With `Cc1c(C)n(Cc2ccccc2)c2ccc(C(=O)OCCCN(C)C)cc12` as the compound, how does the EC50 [6] read?
Its EC50 is < 0.1 µM (active).

And the EC50 [7]?
Its EC50 is > 30 µM (not active).

What about the IC50 [8] of the same compound?
The IC50 was 43.7 µM (active).

And the EC50 [9]?
Its EC50 is 0.153 µM (active).

What does the source list for `CCOC(=O)c1c(NC(=O)Cn2cnc([N+](=O)[O-])n2)sc2c1CCCC2`?
EC50 [6]: < 0.1 µM (active); EC50 [7]: > 60 µM (not active); EC50 [9]: 0.121 µM (active)

For `NC(=O)c1ccc(C(F)(F)F)cn1`, which AC50 [10] is on record?
The AC50 was > 30 µM (inactive).

For `CC(=O)Nc1ccccc1-c1nc2ccc(C(=O)N3CCN(c4cc(C)ccc4C)CC3)cc2nc1O`, which EC50 [3] is on record?
Its EC50 is > 50 µM (active).

For `CCc1ccc(-c2ccc(C(=O)O)c(C)n2)cc1`, which IC50 [11] is on record?
The IC50 was > 109 µM (inactive).

What about the IC50 [12] of the same compound?
The IC50 was > 83.2 µM (inactive).

What does the source list for `CCc1sc(C(=O)N2CCc3ccccc32)cc1C`?
IC50 [13]: 9.39 µM (not active); IC50 [1]: > 67.5 µM (inactive); EC50 [2]: > 67.5 µM (inactive)

Which AC50 [14] does the source give for `Cc1ccc(S(=O)(=O)Nc2ccccc2C(=O)NCc2cccnc2)cc1` here?
The AC50 was 25.6 µM (active).

Which AC50 [10] does the source give for `Cc1cc(C)c(NC(=O)CSc2nc3cc(Br)c[nH]c-3n2)c(C)c1` here?
The AC50 was > 30 µM (inactive).

For `Cn1c(CNc2ccc(F)cc2)nc2ccccc21`, which IC50 [1] is on record?
The IC50 was > 67.5 µM (inactive).

And the EC50 [2]?
The EC50 was > 67.5 µM (inactive).

For `O=C1CCCC(=O)C1CS(=O)(=O)c1ccccc1`, which IC50 [15] is on record?
The IC50 was > 66 µM (inactive).

And the IC50 [16]?
Its IC50 is > 66 µM (inactive).

And the IC50 [11]?
The IC50 was > 109 µM (inactive).

And the IC50 [12]?
The IC50 was > 83.2 µM (inactive).

Which results are given for `c1ccc(-c2ccc(-c3ccccn3)s2)nc1`?
IC50 [1]: > 67.6 µM (inactive); EC50 [2]: > 67.6 µM (inactive); EC50 [17]: > 67.5 µM (inactive); EC50 [18]: > 67.5 µM (inactive)

Which EC50 [3] does the source give for `CC(C)CC(c1nnnn1Cc1ccco1)N1CCN(c2cccc(Cl)c2)CC1` (stereo not given) here?
Its EC50 is > 50 µM (active).

Which IC50 [19] does the source give for `O=C(/C=C\Nc1cccc(F)c1)c1cccs1` here?
Its IC50 is 28.1 µM (active).

What about the EC50 [17] of the same compound?
Its EC50 is > 67.5 µM (inactive).

And the EC50 [18]?
Its EC50 is > 67.5 µM (inactive).

Which IC50 [11] does the source give for `NC(=O)CC(NC(=O)c1ccccc1)c1ccc(NCC2CC2)c([N+](=O)[O-])c1` (stereo not given) here?
Its IC50 is > 109 µM (inactive).

What about the IC50 [12] of the same compound?
Its IC50 is > 83.3 µM (inactive).

Which results are given for `CCOC(=O)c1c(NS(=O)(=O)c2cccc(OC)c2)sc2c1CCC2`?
IC50 [11]: > 109 µM (inactive); IC50 [12]: > 83.3 µM (inactive)

For `CN(CC(=O)Nc1ccc2c(c1)CCC2)CC(=O)Nc1ccccc1Br`, which IC50 [11] is on record?
Its IC50 is > 109 µM (inactive).

What about the IC50 [12] of the same compound?
Its IC50 is > 83.3 µM (inactive).

Which AC50 [10] does the source give for `CC1C(=O)N2CCCc3cc(S(=O)(=O)NCCc4ccccc4)cc1c32` (stereo not given) here?
The AC50 was > 30 µM (inactive).

For `COC(=O)c1ccccc1N(C)S(=O)(=O)c1cc2c(cc1C)OCC(=O)N2`, which AC50 [14] is on record?
Its AC50 is 24.1 µM (active).

For `CCc1ccc(NS(=O)(=O)c2c(C)noc2C)cc1`, which AC50 [10] is on record?
Its AC50 is > 30 µM (inactive).

With `C/C(=N\Nc1ccc(C)c(Cl)c1)c1cccnc1` as the compound, how does the EC50 [3] read?
Its EC50 is > 50 µM (active).

For `O=C(N/N=C/c1ccc(-c2ccccc2Cl)o1)c1ccccc1`, which EC50 [6] is on record?
The EC50 was < 0.1 µM (active).

What about the EC50 [7] of the same compound?
The EC50 was > 60 µM (not active).

And the EC50 [9]?
The EC50 was 0.035 µM (active).

For `CO[C@H]1CN(C)C(=O)c2cc(NC(=O)NC(C)C)ccc2OC[C@H](C)N(Cc2ccc(-c3ccccn3)cc2)C[C@@H]1C`, which AC50 [14] is on record?
Its AC50 is 22.6 µM (active).

Which EC50 [3] does the source give for `O=C(N/N=C/c1ccc(N2CCOCC2)cc1)c1ccc(O)cc1` here?
The EC50 was > 50 µM (active).

What does the source list for `Clc1cccc(-c2nc(-c3ccccn3)no2)c1`?
AC50 [20]: 5.92 µM (active); EC50 [17]: > 67.5 µM (inactive); EC50 [18]: > 67.5 µM (inactive)
